Laboratory results: US20120010178A1, “METHODS AND COMPOUNDS FOR TREATMENT OF NEURODEGENERATIVE DISORDERS” (PRESIDENT AND FELLOWS OF HARVARD COLLEGE, priority 2008, published 2012)
Entries after “also recorded” stand apart in the source; their conditions may differ. Read-outs that look alike come from different tables or passages of the source.

Columns and labels:
SMN [1] = test: SMN immunofluorescence quantification (cytoplasm, nucleus, GEMs) in fibroblasts from SMA patients; format: cell-based, human; settings: for levels of cytoplasmic and nuclear SMN (in words): SMA patient fibroblasts, substance alone
Protocol: Specifically, fibroblasts from patients suffering from SMA were treated with Ionomycin (a channel modulator), Ouabain (a cardiac glycoside and channel modulator), PDGF, SAHA (an HDAC inhibitor), Lactacystin (a proteasome inhibitor) or WIN 55,212-2 (a cannabinoid receptor […] and GPCR ligand) for 72 hours. The cells were fixed with methanol/acetone and stained with Pharmingen BD antibodies, followed by 488 AlexaFluor staining. Images were obtained with 60× lens on Zeiss LSM510 META on an inverted confocal microscope.
For example, fibroblasts from patients suffering from SMA were treated with Ouabain, Digoxin or Lanatoside at a concentration of 0, 2.5 nM, 5 nM, 10 nM, 20 nM, 40 nM, 80 nM, […] for 72 hours. The cells were fixed with methanol/acetone and stained with Pharmingen BD antibodies, followed by 488 AlexaFluor staining. Images were obtained with 60× lens on Zeiss LSM510 META on an inverted confocal microscope.
An assay was established for high-content evaluation of SMN protein level in different cellular compartments after treatment with small molecules. SMN protein was visualized by immunofluorescent staining and multiple fields from each plate well were scanned by an automated confocal Opera microscope. […] For each well, the algorithm generated quantitative parameters representing number of cells, as well as SMN fluorescent intensity per cell in cytoplasm, nucleus, number and intensity of GEMs (FIG. 15). […] During the assay transfer to the robotic platform fixation with the ice cold methanol was technically limited, therefore to preserve the maximum possible window we chose to perform the screen on parental fibroblast with PFA fixation.
For fibroblast assays, human fibroblasts lines GM09677 (derived from patient with SMA type 1 disease) and GM03814 (derived from unaffected parental SMA carriers) were used (Coriell Cell Repositories). […] For secondary assays cells from GM09677 line were used.
Fibroblasts were grown in MEM media (Invitrogen) supplemented with 5% Fetal Bovine Serum (FBS, Invitrogen), 2 mM glutamine and 1% penicillin-streptomycin (100 U/ml) in a presence of 5% CO2 at 37° C. For drug treatments, cells were plated and treated 24 h later with 10 μM MG132 (Biomol International), […] Calpeptin (Biomol International), 10 mM ammonium chloride, 1 μM myristoylated PKI, or vehicle for the designated times.
(§1) Compounds were stored at appropriate temperature and dissolved accordingly to the manufacturers (Tocris, Enzo, EMD and Sigma-Aldrich) in DMSO (Sigma-Aldrich), unless stated otherwise (Monensin Na in EtOH, DMPQ in water). Growth factors and PDGF neutralizing antibodies (R&D Systems) were reconstituted with buffers recommended by the supplier. For generation of the dose curves, 1×10^3 fibroblasts were plated on to 96-well Greiner Senso plates (VWR) and treated with compounds on the second day then fixed and stained at the indicated time points. For GSK inhibitors and performing p-GSK3b(Ser9) detection, two days after plating growth media containing 5% FBS was replaced to the media with FBS reduced down to 0.5%, to starve cells for 72 hours. Addition of the GSK inhibitors was done in 5% FBS enriched media.

SMN [2] = test: Inhibition of PDGF-stimulated SMN increase in fibroblasts by kinase/receptor inhibitors; format: cell-based, human; settings: SMA patient fibroblasts, PDGF plus inhibitor or neutralizing antibody
Protocol: Fibroblasts from patients suffering from SMA were treated with PDGF at a concentration of 0, 0.3 ng/ml, 0.63 ng/ml, 1.25 ng/ml, 2.5 ng/ml, 5 ng/ml, 10 ng/ml or 20 ng/ml, in the absence or in the presence of 25 uM DMPQ or 25 uM AG-1296 respectively for 72 hours. The levels of both cytoplasmic and nuclear SMN were detected and quantified using the method described in Example 2.
Fibroblasts from patients suffering from SMA were either control treated or treated with PDGF at a concentration of 0, 0.63 ng/ml, 1.25 ng/ml, 2.5 ng/ml, 5 ng/ml, 10 ng/ml or 20 ng/ml, in the absence or in the presence of 50 uM LY294002 or 2 uM P1-103 respectively for 72 hours. The levels of both cytoplasmic and nuclear SMN were detected and quantified using the method described in Example 2.
Fibroblasts from patients suffering from SMA were either control treated or treated with PDGF at a concentration of 0, 0.63 ng/ml, 1.25 ng/ml, 2.5 ng/ml, 5 ng/ml, 10 ng/ml or 20 ng/ml, in the absence or in the presence of 2 uM Papamycin for 72 hours. The levels of both cytoplasmic and nuclear SMN were detected and quantified using the method described in Example x.
A range of concentrations were tested in order not to miss the effects. SMN level were evaluated by Opera Evoteck in each cellular compartment and to assess the cell numbers that are summarized in the Table 3.
as §1, with “media. As previously described, starvation increases levels of constitutively activate GSK3b kinase, allowing to achieve a more dramatic inhibitory effect when GSK inhibitors are added together with growth factors that are also known to inhibit GSK by Ser-9 phosphorylation. […] For all compounds and growth factors control wells received solvent in amount equivalent to the highest concentration of the compound in a dose curve. For PDGF inhibitory studies, cells were pre-treated with kinase inhibitors for 2 hours and PDGF was added with a fresh kinase inhibitor solution and incubated for an additional 3 days.” for “media.”

SMN [3] = test: High-content fibroblast screen for compounds that modulate SMN level; settings: human fibroblasts, 2-3 days with compound;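 also: Anti-SMN immunostaining with confocal imaging of nuclear and cytoplasmic SMN and gem counts, tested at 0.1, 1 and 10 uM, fold change relative to negative control wells on each plate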
Protocol: Human fibroblasts were incubated for 2-3 days with compounds from annotated collections. Cells were fixed and stained with an anti-SMN antibody. Confocal imaging was used to quantify SMN fluorescence in nucleus and cytoplasm and count Gems. Data were collected and subsequently analyzed by clustering compounds by suspected mechanism of action and chemical structure.
Following optimization of assay conditions on day 0, total of 500 human fibroblasts (GM09677 line) per well were seeded in 384-well plates, on day 3 they were treated with compounds (robot CyBio) from the annotated collections and on the 5 day plates were fixed and stained (robot MAPD) with an anti-SMN antibody and secondary antibody conjugated with 448 fluorophore (FIG. 19a). Compounds from the libraries were added in duplicate at three final concentrations of 10, 1 and 0.1 uM.
SMN detection was done on the automated confocal microscope Opera PerkinElmer with separate fluorescent exposures to 488 nM laser for and a UV light source to detect nuclei stained with Hoechst 33258 with a 20× objective.
After scanning on the Opera, an XML file extraction workflow, designed with Inforsense KDE, was used to assemble the data from multiple replicate plates of each HCS experiment including the quantitative parameters described above and chemical identities, chemical concentrations and indications of which wells were used for positive and negative controls. […] The fold-induction of SMN intensity values for each well treated with a library chemical were normalized to the SMN average intensity in multiple negative control wells per plate.
Since it is not known which form of SMN increase is the most essential, hits that scored in a duplicate at least in two different parameters greater than 1.3 fold at any of the three concentrations were selected (FIG. 19d). […] Further, 220 compounds were screened in the absence of anti-SMN primary antibody with the same assay conditions, to filter out the fluorescent compounds.

[4] = target: T1, GSK3b (Ser-9 phosphorylation) (Homo sapiens, UniProt P49841); test: p-GSK(Ser9) phosphorylation in patient fibroblasts (western blot / immunofluorescence); format: cell-based
T1 construct: endogenous in cells; host or cells: SMA patient fibroblasts (GM09677), starved in 0.5% FBS before treatment
T1 sequence (P49841 whole entry): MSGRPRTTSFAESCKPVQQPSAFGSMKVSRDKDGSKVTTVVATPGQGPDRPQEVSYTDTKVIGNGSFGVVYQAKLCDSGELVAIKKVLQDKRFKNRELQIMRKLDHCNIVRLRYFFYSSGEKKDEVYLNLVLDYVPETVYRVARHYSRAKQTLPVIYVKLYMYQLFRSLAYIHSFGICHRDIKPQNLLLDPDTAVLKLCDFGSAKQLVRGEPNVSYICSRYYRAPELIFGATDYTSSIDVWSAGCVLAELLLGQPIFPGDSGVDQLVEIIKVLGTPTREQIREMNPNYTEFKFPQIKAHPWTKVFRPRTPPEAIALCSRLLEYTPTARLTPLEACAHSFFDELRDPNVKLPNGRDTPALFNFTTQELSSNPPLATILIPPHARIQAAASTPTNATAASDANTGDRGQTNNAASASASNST
Protocol: as §1, with “media. As previously described, starvation increases levels of constitutively activate GSK3b kinase, allowing to achieve a more dramatic inhibitory effect when GSK inhibitors are added together with growth factors that are also known to inhibit GSK by Ser-9 phosphorylation. […] For all compounds and growth factors control wells received solvent in amount equivalent to the highest concentration of the compound in a dose curve. For PDGF inhibitory studies, cells were pre-treated with kinase inhibitors for 2 hours and PDGF was added with a fresh kinase inhibitor solution and incubated for an additional 3 days.” for “media.”

PC12 cells = settings: cited from earlier work
SMN [5] = test: SMN levels in mouse (ES-cell derived) motor neurons; format: cell-based; settings: for SMN levels in motor neurons (in words): mouse motor neurons
Protocol: Mouse HB9-GFP derived SMN deficient motor neuron cells were incubated for 2 days with compounds from libraries and collections.
Motor neurons were produced from mouse ES-cells expressing cherry fluorescent protein (CFP) under the control of the motor neuron-selective Hb9 promoter, as previously described (Wichterle et al., 2002).
GFP expressing motor neurons were derived from mouse ES cells as described below. After growing for approximately 1 week, motor neurons were treated with allsterpaullone. Two days after treatment with allsterpaullone, cells were fixed and stained with SMN antibody or GFP antibody.
mES cells were differentiated into motor neurons according to methods adapted from Wichterle et. al., Cell (2002), 110:385-397. Briefly, mES cells were grown to 70-80% confluence in 10-cm plates (Falcon) in ES cell medium. To form embryoid bodies, cells were washed once with PBS to eliminate mES medium and then incubated with 1 ml of 0.25% trypsin (GIBCO) for 5-10 min at 21-25° C. (RT). Cells were then resuspended in 10 ml of DM1 medium (DMEM-F12, GIBCO), 10% knockout serum (GIBCO), penicillin, streptomycin, glutamine (GIBCO) and 2-mercaptoethanol (GIBCO), counted and plated at a concentration of 200,000 cells per ml in Petri dishes (Falcon). Two days later, embryoid bodies were collected and resuspended into new Petri dishes containing DM1 medium supplemented with RAc (100 nM; stock 1 mM in DMSO, Sigma) and HhAg (100 nM). […] treatment was repeated with the same concentration of RAc (100 nM) and high concentration of HhAg (1 μM). On day 6, the embryoid bodies were collected in a 15-ml Falcon tube, and incubated in Earle's balanced salt solution with 20 units of Papain and 1,000 units of DNase I (Worthington Biochemical) for 10 min at 37° C. The mixture was then triturated with a 10-ml pipette and centrifugated for 5 min at 800 rpm. The resulting cell pellet was washed with PBS and resuspended in F12 medium (F12 medium, GIBCO) with 2% fetal bovine serum (GIBCO), B-27 supplement (GIBCO), (GDNF and BDNF, 20 ng ml^−1, R&D Systems). The cells were counted and plated on poly-ornithine coated 96-well plates (VWR).

motor neurons = test: Motor neuron survival (mouse motor neurons, compound treatment); format: cell-based
Protocol: Mouse motor neurons were treated with […] inhibitors. The levels of both cytoplasmic and nuclear SMN were detected and quantified using the method described in Example 2. The results shown in FIG. 14b indicate that […] inhibitors increase motor neuron survival.
Another way of assessing motor neuron survival is by withdrawing the neurotrophic factors from the media. Briefly, motor neurons are grown in media containing neurotrophic factors. The neurotrophic factors are then withdrawn from the growth media, e.g., cells transferred to media having no neurotrophic factors or neurotrophic factor containing media exchanged with neurotrophic factors lacking media. The compound of interest is added and motor neurons are counted on a daily basis.

## COc1cc2ncc(-c3ccccc3)nc2cc1OC [AG-1296]
SMN [1]; added to the regular serum media in which cells are maintained, no added PDGF
  decrease of basal level of SMN: 20%
SMN [2]
  PDGF-stimulated SMN increase in presence of inhibitor (in words): sufficient to prevent PDGF effect on SMN; also recorded: abrogated
SMN [2]; listed as AG-1236
  PDGF-stimulated SMN increase in presence of inhibitor (in words): blocked; also recorded: abolished
SMN [3]
  SMN level in fibroblast screen (increase or decrease): decreased SMN

## COc1ccc(CNC(=O)Nc2ncc([N+](=O)[O-])s2)cc1 [AR-A014418]
SMN [1]; at a concentration of 23 μM
  SMN level fold increase: 2 fold
[4]; patient fibroblasts
  p-GSK-Ser9 phosphorylation (in words): promoted phosphorylation of p-GSK-Ser9
SMN [3]
  SMN level in fibroblast screen (increase or decrease): SMN is increase

## COc1cc(OC)c2cc(-c3ccncc3)cnc2c1.Cl.Cl [DMPQ]
SMN [1]
  levels of cytoplasmic and nuclear SMN (in words): decreases
SMN [1]; listed as DMPQ dihydrochloride
  levels of cytoplasmic and nuclear SMN (in words): decrease
SMN [2]
  PDGF-stimulated SMN increase in presence of inhibitor (in words): sufficient to prevent PDGF effect on SMN; also recorded: abrogated; also recorded: blocked; also recorded: abolished
SMN [3]
  SMN level in fibroblast screen (increase or decrease): decreased SMN

## Oc1cccc(-c2nc(N3CCOCC3)c3oc4ncccc4c3n2)c1 [PI-103]
SMN [2]
  PDGF-stimulated SMN increase in presence of inhibitor (in words): PDGF does not increase the levels of SMN; also recorded: able to prevent PDGF induced SMN increase in all cellular compartments; also recorded: completely abolished
SMN [2]; listed as P1-103
  PDGF-stimulated SMN increase in presence of inhibitor (in words): abrogated
SMN [3]
  SMN level in fibroblast screen (increase or decrease): decreased SMN

## Cn1cc(C2=C(c3ccc(Cl)cc3Cl)C(=O)NC2=O)c2ccccc21 [SB216763]
PC12 cells
  protection from EGTA induced death: able to protect PC12 cells from EGTA induced death

## CC(/C=C/C(=O)NO)=C\[C@@H](C)C(=O)c1ccc(N(C)C)cc1 [Trichostatin]
SMN [1]; fibroblasts
  effect on GEMs (number / intensity, in words): increased GEM counts at the lower concentrations
SMN [1]; fibroblasts, higher dosage
  nuclear SMN at the higher dosage (in words): increased nuclear SMN predominantly
SMN [5]
  SMN levels in motor neurons (in words): increase SMN
SMN [5]; listed as Trichastatin
  SMN levels in motor neurons (in words): increase SMN levels

## COc1cc2c(cc1OC)[C@@H]1C(=O)c3ccc4c(c3O[C@@H]1CO2)C=CC(C)(C)O4 [deguelin]
SMN [5]
  spot intensity in ES-derived motor neurons: decrease
  SMN levels in motor neurons (in words): decrease

## O=C1Cc2c([nH]c3ccc(Br)cc23)-c2ccccc2N1 [kenpaullone, 9-bromopaullone]
SMN [5]
  SMN levels in motor neurons (in words): without increasing SMN protein levels
Motor neurons
  motor neuron survival (in words): promote motor neuron survival

## C=C(C)[C@H]1Cc2c(ccc3c2O[C@@H]2COc4cc(OC)c(OC)cc4[C@@H]2C3=O)O1 [roteonone]
SMN [5]
  spot intensity in ES-derived motor neurons: decrease
  SMN levels in motor neurons (in words): decrease

## CHIR98014
SMN [1]
  SMN level fold increase: over 2.5 fold
[4]
  p-GSK-Ser9 phosphorylation (in words): promoted phosphorylation of p-GSK-Ser9
